This note sets out measurements from patent US20240124427A1, “HYDROXYHETEROCYCLOALKANE-CARBAMOYL DERIVATIVES” (Idorsia Pharmaceuticals Ltd, priority 2021, published 2024).

Broadly, the IC50 is the concentration at which inhibition is half-maximal.

The target in the assay is human Gal-3 (hGal-3) (Homo sapiens (Human), UniProt P17931). As to the kind of experiment: Competitive binding assay: biotinylated hGal-3 binding to microplate-adsorbed asialofetuin (ASF). The settings on record: Activity on hGal-3; mean values of several measurements; mixture of diastereomers measured where not separated. The procedure: The inhibitory activity of compounds is determined in competitive binding assays. This spectrophotometric assay measures the binding of biotinylated human Gal-3 (hGal-3) or human Gal-1 (hGal-1), respectively, to a microplate-adsorbed glycoprotein, asialofetuin (ASF) (Proc Natl Acad Sci USA. 2013 Mar 26;110(13):5052-7.). Alternatively, and preferably, a human Gal-1 version in which all six cysteines are substituted by serines may be used.
Chain of human Gal-3 (hGal-3) (P17931 whole entry): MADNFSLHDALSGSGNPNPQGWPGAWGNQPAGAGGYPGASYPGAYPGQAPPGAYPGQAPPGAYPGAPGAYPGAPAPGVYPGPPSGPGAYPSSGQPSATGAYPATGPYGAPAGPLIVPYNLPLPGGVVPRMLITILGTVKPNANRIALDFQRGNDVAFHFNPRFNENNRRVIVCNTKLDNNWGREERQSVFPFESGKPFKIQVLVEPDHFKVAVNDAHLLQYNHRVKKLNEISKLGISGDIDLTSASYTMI
Briefly, compounds are serially diluted in DMSO (working dilutions).
Plates are incubated for 3 hours at 4° C., then washed with cold assay buffer (3×50 uL), incubated for 1 hour with 25 μL/well of a streptavidin-peroxidase solution (diluted in assay buffer to 80 ng/mL) at 4° C., followed by further washing steps with assay buffer (3×50 uL). Finally, 25 μL/well of ABTS substrate is added.
The calculated IC50 values may fluctuate depending on the daily assay performance. Fluctuations of this kind are known to those skilled in the art. IC50 values from several measurements are given as mean values.
With `CO[C@@H]1[C@@H](n2cc(-c3ccc(Cl)c(Cl)c3)nn2)[C@@H](O)[C@@H](CO)O[C@H]1C(=O)N(c1cc(Br)cc(C#N)c1)[C@H]1COC[C@@H]1O` [Example 28, (2R,3R,4S,5R,6R)-N-(3-bromo-5-cyanophenyl)-4-(4-(3,4-dichlorophenyl)-1H-1,2,3-triazol-1-yl)-5-hydroxy-6-(hydroxymethyl)-N-((3S,4R)-4-hydroxytetrahydrofuran-3-yl)-3-methoxytetrahydro-2H-pyran-2-carboxamide], the IC50 turned out to be 115 nM. To `CO[C@@H]1[C@@H](n2cc(-c3cc(F)c(F)c(F)c3)nn2)[C@@H](O)[C@@H](CO)O[C@H]1C(=O)N(c1cc(C)cc(Br)c1)[C@@H]1CCOC[C@H]1O` [Example 104, (2R,3R,4S,5R,6R)-N-(3-bromo-5-methylphenyl)-5-hydroxy-6-(hydroxymethyl)-N-((3S,4R)-3-hydroxytetrahydro-2H-pyran-4-yl)-3-methoxy-4-(4-(3,4,5-trifluorophenyl)-1H-1,2,3-triazol-1-yl)tetrahydro-2H-pyran-2-carboxamide] belongs 256 nM. `CO[C@@H]1[C@@H](n2cc(-c3ccc(C)c(F)c3F)nn2)[C@@H](O)[C@@H](CO)O[C@H]1C(=O)N(c1cc(Br)cc(C#N)c1)[C@@H]1COC[C@H]1O` [Example 49, (2R,3R,4S,5R,6R)-N-(3-bromo-5-cyanophenyl)-4-(4-(2,3-difluoro-4-methylphenyl)-1H-1,2,3-triazol-1-yl)-5-hydroxy-6-(hydroxymethyl)-N-((3R,4S)-4-hydroxytetrahydrofuran-3-yl)-3-methoxytetrahydro-2H-pyran-2-carboxamide]: the IC50 came out at 18 nM. The same measure for `CO[C@@H]1[C@@H](n2cc(-c3cc(F)c(C)c(F)c3)nn2)[C@@H](O)[C@@H](CO)O[C@H]1C(=O)N(c1cc(Br)cc(C#N)c1)[C@@H]1COC[C@H]1O` [Example 46, (2R,3R,4S,5R,6R)-N-(3-bromo-5-cyanophenyl)-4-(4-(3,5-difluoro-4-methylphenyl)-1H-1,2,3-triazol-1-yl)-5-hydroxy-6-(hydroxymethyl)-N-((3R,4S)-4-hydroxytetrahydrofuran-3-yl)-3-methoxytetrahydro-2H-pyran-2-carboxamide]: 81 nM; for `CO[C@@H]1[C@@H](n2cc(-c3cc(F)c(F)c(F)c3)nn2)[C@@H](O)[C@@H](CO)O[C@H]1C(=O)N(c1cc(C)cc(Br)c1)[C@@H]1CN(C(C)=O)C[C@H]1O` [Example 79, (2R,3R,4S,5R,6R)-N-((3R,4R)-1-acetyl-4-hydroxypyrrolidin-3-yl)-N-(3-bromo-5-methylphenyl)-5-hydroxy-6-(hydroxymethyl)-3-methoxy-4-(4-(3,4,5-trifluorophenyl)-1H-1,2,3-triazol-1-yl)tetrahydro-2H-pyran-2-carboxamide]: 76 nM; for `CO[C@@H]1[C@@H](n2cc(-c3cc(F)c(F)c(F)c3)nn2)[C@@H](O)[C@@H](CO)O[C@H]1C(=O)N(c1cc(Cl)cc(Cl)c1)[C@H]1CNC[C@@H]1O` [Example 59, (2R,3R,4S,5R,6R)-N-(3,5-dichlorophenyl)-5-hydroxy-6-(hydroxymethyl)-N-((3S,4S)-4-hydroxypyrrolidin-3-yl)-3-methoxy-4-(4-(3,4,5-trifluorophenyl)-1H-1,2,3-triazol-1-yl)tetrahydro-2H-pyran-2-carboxamide]: 23 nM.

In the case of `CO[C@@H]1[C@@H](n2cc(-c3ccc(Cl)c(Cl)c3)nn2)[C@@H](O)[C@@H](CO)O[C@H]1C(=O)N(c1cc(Br)cc(Br)c1)[C@H]1COC[C@@H]1O` [Example 27, (2R,3R,4S,5R,6R)-N-(3,5-dibromophenyl)-4-(4-(3,4-dichlorophenyl)-1H-1,2,3-triazol-1-yl)-5-hydroxy-6-(hydroxymethyl)-N-((3S,4R)-4-hydroxytetrahydrofuran-3-yl)-3-methoxytetrahydro-2H-pyran-2-carboxamide], the IC50 is 89 nM. In the case of `CO[C@@H]1[C@@H](n2cc(-c3ccc(Br)c(F)c3F)nn2)[C@@H](O)[C@@H](CO)O[C@H]1C(=O)N(c1cc(C)cc(Br)c1)[C@@H]1COC[C@H]1O` [Example 43, (2R,3R,4S,5R,6R)-4-(4-(4-bromo-2,3-difluorophenyl)-1H-1,2,3-triazol-1-yl)-N-(3-bromo-5-methylphenyl)-5-hydroxy-6-(hydroxymethyl)-N-((3R,4S)-4-hydroxytetrahydrofuran-3-yl)-3-methoxytetrahydro-2H-pyran-2-carboxamide], the IC50 is 33 nM. To `CO[C@@H]1[C@@H](n2cc(-c3ccc(Br)c(F)c3F)nn2)[C@@H](O)[C@@H](CO)O[C@H]1C(=O)N(c1cc(Cl)cc(Cl)c1)[C@H]1CN(C(C)=O)C[C@@H]1O` [Example 73, (2R,3R,4S,5R,6R)-N-((3S,4S)-1-acetyl-4-hydroxypyrrolidin-3-yl)-4-(4-(4-bromo-2,3-difluorophenyl)-1H-1,2,3-triazol-1-yl)-N-(3,5-dichlorophenyl)-5-hydroxy-6-(hydroxymethyl)-3-methoxytetrahydro-2H-pyran-2-carboxamide] belongs 23 nM; to `CO[C@@H]1[C@@H](n2cc(-c3ccc(Cl)c(Cl)c3)nn2)[C@@H](O)[C@@H](CO)O[C@H]1C(=O)N(c1cc(C)cc(Br)c1)[C@@H]1COC[C@H]1O` [Example 58, (2R,3R,4S,5R,6R)-N-(3-bromo-5-methylphenyl)-4-(4-(3,4-dichlorophenyl)-1H-1,2,3-triazol-1-yl)-5-hydroxy-6-(hydroxymethyl)-N-((3R,4S)-4-hydroxytetrahydrofuran-3-yl)-3-methoxytetrahydro-2H-pyran-2-carboxamide], 175 nM; to `CO[C@@H]1[C@@H](n2cc(-c3cc(F)c(Cl)c(F)c3)nn2)[C@@H](O)[C@@H](CO)O[C@H]1C(=O)N(c1cc(C)cc(Br)c1)[C@H]1COC[C@@H]1O` [Example 25, (2R,3R,4S,5R,6R)-N-(3-bromo-5-methylphenyl)-4-(4-(4-chloro-3,5-difluorophenyl)-1H-1,2,3-triazol-1-yl)-5-hydroxy-6-(hydroxymethyl)-N-((3S,4R)-4-hydroxytetrahydrofuran-3-yl)-3-methoxytetrahydro-2H-pyran-2-carboxamide], 31 nM.

On to `CO[C@@H]1[C@@H](n2cc(-c3ccc(C)c(F)c3F)nn2)[C@@H](O)[C@@H](CO)O[C@H]1C(=O)N(c1cc(C)cc(Br)c1)[C@H]1CN(C=O)C[C@@H]1O` [Example 92, (2R,3R,4S,5R,6R)-N-(3-bromo-5-methylphenyl)-4-(4-(2,3-difluoro-4-methylphenyl)-1H-1,2,3-triazol-1-yl)-N-((3S,4S)-1-formyl-4-hydroxypyrrolidin-3-yl)-5-hydroxy-6-(hydroxymethyl)-3-methoxytetrahydro-2H-pyran-2-carboxamide], for which the IC50 is 19 nM.

Take `CO[C@@H]1[C@@H](n2cc(-c3cc(F)c(F)c(F)c3)nn2)[C@@H](O)[C@@H](CO)O[C@H]1C(=O)N(c1cc(C)cc(Br)c1)[C@H]1CCOC[C@@H]1O` [Example 102, (2R,3R,4S,5R,6R)-N-(3-bromo-5-methylphenyl)-5-hydroxy-6-(hydroxymethyl)-N-((3R,4S)-3-hydroxytetrahydro-2H-pyran-4-yl)-3-methoxy-4-(4-(3,4,5-trifluorophenyl)-1H-1,2,3-triazol-1-yl)tetrahydro-2H-pyran-2-carboxamide]: the concentration for half-maximal inhibition (IC50) came out at 14 nM. As for `CO[C@@H]1[C@@H](n2cc(-c3cc(F)c(F)c(F)c3)nn2)[C@@H](O)[C@@H](CO)O[C@H]1C(=O)N(c1cccc(I)c1)[C@@H]1COC[C@H]1O` [Example 32, (2R,3R,4S,5R,6R)-5-hydroxy-6-(hydroxymethyl)-N-((3R,4S)-4-hydroxytetrahydrofuran-3-yl)-N-(3-iodophenyl)-3-methoxy-4-(4-(3,4,5-trifluorophenyl)-1H-1,2,3-triazol-1-yl)tetrahydro-2H-pyran-2-carboxamide], the IC50 came to 130 nM. On to `CO[C@@H]1[C@@H](n2cc(-c3cc(F)c(C)c(F)c3)nn2)[C@@H](O)[C@@H](CO)O[C@H]1C(=O)N(c1cc(C)cc(Br)c1)[C@@H]1COC[C@H]1O` [Example 47, (2R,3R,4S,5R,6R)-N-(3-bromo-5-methylphenyl)-4-(4-(3,5-difluoro-4-methylphenyl)-1H-1,2,3-triazol-1-yl)-5-hydroxy-6-(hydroxymethyl)-N-((3R,4S)-4-hydroxytetrahydrofuran-3-yl)-3-methoxytetrahydro-2H-pyran-2-carboxamide], for which the IC50 was 72 nM.

Regarding `CO[C@@H]1[C@@H](n2cc(-c3ccc(Cl)c(Cl)c3)nn2)[C@@H](O)[C@@H](CO)O[C@H]1C(=O)N(c1cc(Cl)cc(Cl)c1)[C@H]1CNC[C@@H]1O` [Example 65, (2R,3R,4S,5R,6R)-N-(3,5-dichlorophenyl)-4-(4-(3,4-dichlorophenyl)-1H-1,2,3-triazol-1-yl)-5-hydroxy-6-(hydroxymethyl)-N-((3S,4S)-4-hydroxypyrrolidin-3-yl)-3-methoxytetrahydro-2H-pyran-2-carboxamide], the IC50 came out at 54 nM. The same measure for `CCN1C[C@H](O)[C@@H](N(C(=O)[C@@H]2O[C@H](CO)[C@H](O)[C@H](n3cc(-c4cc(F)c(F)c(F)c4)nn3)[C@H]2OC)c2cc(C)cc(Br)c2)C1` [Example 97, (2R,3R,4S,5R,6R)-N-(3-bromo-5-methylphenyl)-N-((3S,4S)-1-ethyl-4-hydroxypyrrolidin-3-yl)-5-hydroxy-6-(hydroxymethyl)-3-methoxy-4-(4-(3,4,5-trifluorophenyl)-1H-1,2,3-triazol-1-yl)tetrahydro-2H-pyran-2-carboxamide]: 24 nM.
